According to patent US8114991B2, “Amino-1,3,5-triazines N-substituted with chiral bicyclic radicals, process for their preparation, compositions thereof, and their use as herbicides and plant growth regulators” (Bayer Cropscience AG, priority 2003, dated 2012):

Legend:
[1] = test system: harmful plants such as Stellaria media, Lolium multiforum, Amaranthus retroflexus, Sinapis alba, Avena sativa and Setaria viridis; assay: Pre-emergence effect on weeds (greenhouse pot test); type: in vivo; details: application rate of 1 kg or less of active ingredient per hectare; scored after 3 to 4 weeks by comparison with untreated controls
Summary of the method: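 Seeds or rhizome pieces sown in sandy loam; test compounds (wettable powder or emulsion concentrate) applied pre-emergence to soil surface as aqueous suspension/emulsion at various dosages, 600 to 800 l water/ha. Greenhouse; plant/emergence damage scored visually after 3 to 4 weeks versus untreated controls.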

[2] = test system: harmful plants such as Sinapis alba, Echinochloa crus-galli, Lolium multiflorum, Stellaria media, Cyperus iria, Amaranthus retroflexus, Setaria viridis, Avena …; assay: Post-emergence effect on weeds (greenhouse pot test); type: in vivo; details: application rate of 2 kg or less of active ingredient per hectare; treated in the three-leaf stage; scored after approx. 3 to 4 weeks by comparison with untreated controls

C[C@@H](F)c1nc(N)nc(N[C@H]2c3ccccc3CC[C@@H]2C)n1 [Compound 2.11] was tested, and the “pre-emergence control of harmful plants (plant or emergence damage scored visually)” value (shortened to “pre-emergence control of harmful plants”) [1] was “very good pre-emergence control” and the “herbicidal post-emergence activity against harmful plants (scored visually)” value (shortened to “herbicidal post-emergence activity”) [2] was “very good herbicidal post-emergence activity”.

With Cc1ccc2c(c1)[C@H](Nc1nc(N)nc(C(C)(Cl)Cl)n1)CC2 [Compound 8.79] the “pre-emergence control of harmful plants” value [1] was “very good pre-emergence control” and the “herbicidal post-emergence activity” value [2] was “very good herbicidal post-emergence activity”.

In the case of CCCc1nc(N)nc(N[C@@H]2CCc3ccc(C)cc32)n1 [Compound 8.48], the “pre-emergence control of harmful plants” value [1] is reported as “very good pre-emergence control” and the “herbicidal post-emergence activity” value [2] is reported as “very good herbicidal post-emergence activity”.

With CCc1ccc2c(c1)[C@H](Nc1nc(N)nc([C@@H](C)F)n1)CC2 [Compound 1.68] the “pre-emergence control of harmful plants” value [1] was “very good pre-emergence control” and the “herbicidal post-emergence activity” value [2] was “very good herbicidal post-emergence activity”.

CCCC(F)c1nc(N)nc(NC2CCOc3c(C)cc(C)cc32)n1 (mixture of isomers) [Compound 10.67] was tested, and the “pre-emergence control of harmful plants” value [1] was “very good pre-emergence control” and the “herbicidal post-emergence activity” value [2] was “very good herbicidal post-emergence activity”.

In the case of Cc1ccc2c(c1)[C@H](Nc1nc(N)nc([C@@H](C)Cl)n1)[C@@H](C)CC2 [Compound 2.28], the “pre-emergence control of harmful plants” value [1] is reported as “very good pre-emergence control” and the “herbicidal post-emergence activity” value [2] is reported as “very good herbicidal post-emergence activity”.

In the case of Cc1ccc2c(c1)[C@H](Nc1nc(C)nc(N)n1)CCC2 [Compound 8.12], the “pre-emergence control of harmful plants” value [1] is reported as “very good pre-emergence control” and the “herbicidal post-emergence activity” value [2] is reported as “very good herbicidal post-emergence activity”.

In the case of CCc1nc(N)nc(N[C@@H]2CCCc3ccc(C)cc32)n1 [Compound 8.35], the “pre-emergence control of harmful plants” value [1] is reported as “very good pre-emergence control” and the “herbicidal post-emergence activity” value [2] is reported as “very good herbicidal post-emergence activity”.

In the case of C[C@H]1Cc2ccccc2[C@@H]1Nc1nc(N)nc(CCSC(F)(F)F)n1 [Compound 7.241], the “pre-emergence control of harmful plants” value [1] is reported as “very good pre-emergence control” and the “herbicidal post-emergence activity” value [2] is reported as “very good herbicidal post-emergence activity”.

In the case of Cc1cc(C)c2c(c1)[C@H](Nc1nc(N)nc(C(C)(C)F)n1)CCC2 [Compound 8.209], the “pre-emergence control of harmful plants” value [1] is reported as “very good pre-emergence control” and the “herbicidal post-emergence activity” value [2] is reported as “very good herbicidal post-emergence activity”.

In the case of CCC(F)c1nc(N)nc(N[C@@H]2CCCc3ccc(C)cc32)n1 (some centres unmarked) [Compound 10.47], the “pre-emergence control of harmful plants” value [1] is reported as “very good pre-emergence control” and the “herbicidal post-emergence activity” value [2] is reported as “very good herbicidal post-emergence activity”.

With Cc1ccc2c(c1)[C@H](Nc1nc(N)nc([C@@H](C)Cl)n1)[C@@H](C)C2 [Compound 2.25] the “pre-emergence control of harmful plants” value [1] was “very good pre-emergence control” and the “herbicidal post-emergence activity” value [2] was “very good herbicidal post-emergence activity”.

With Cc1nc(N)nc(N[C@H]2c3cc(Cl)ccc3C[C@@H]2C)n1 [Compound 7.4] the “pre-emergence control of harmful plants” value [1] was “very good pre-emergence control” and the “herbicidal post-emergence activity” value [2] was “very good herbicidal post-emergence activity”.

With CCC(F)c1nc(N)nc(N[C@H]2c3cc(C)ccc3C[C@@H]2C)n1 (some centres unmarked) [Compound 9.37] the “pre-emergence control of harmful plants” value [1] was “very good pre-emergence control” and the “herbicidal post-emergence activity” value [2] was “very good herbicidal post-emergence activity”.

For CCc1nc(N)nc(N[C@H]2c3ccccc3CC[C@@H]2C)n1 [Compound 7.78], the “pre-emergence control of harmful plants” value [1] was “very good pre-emergence control” and the “herbicidal post-emergence activity” value [2] was “very good herbicidal post-emergence activity”.

With C[C@H]1CCc2ccccc2[C@@H]1Nc1nc(N)nc(C(C)(C)F)n1 [Compound 7.203] the “pre-emergence control of harmful plants” value [1] was “very good pre-emergence control” and the “herbicidal post-emergence activity” value [2] was “very good herbicidal post-emergence activity”.

With COCc1nc(N)nc(N[C@H]2c3ccccc3C[C@@H]2C)n1 [Compound 7.70] the “pre-emergence control of harmful plants” value [1] was “very good pre-emergence control” and the “herbicidal post-emergence activity” value [2] was “very good herbicidal post-emergence activity”.

In the case of Cc1cc(C)c2c(c1)[C@H](Nc1nc(N)nc([C@H](C)F)n1)CCC2 [Compound 3.15], the “pre-emergence control of harmful plants” value [1] is reported as “very good pre-emergence control” and the “herbicidal post-emergence activity” value [2] is reported as “very good herbicidal post-emergence activity”.

In the case of C[C@H]1Cc2ccccc2[C@@H]1Nc1nc(N)nc(CC#N)n1 [Compound 7.242], the “pre-emergence control of harmful plants” value [1] is reported as “very good pre-emergence control” and the “herbicidal post-emergence activity” value [2] is reported as “very good herbicidal post-emergence activity”.

With Cc1ccc2c(c1)[C@H](Nc1nc(N)nc(CCSC(F)(F)F)n1)CCC2 [Compound 8.251] the “pre-emergence control of harmful plants” value [1] was “very good pre-emergence control” and the “herbicidal post-emergence activity” value [2] was “very good herbicidal post-emergence activity”.

With Cc1ccc2c(c1)[C@H](Nc1nc(N)nc([C@@H](C)F)n1)CCO2 [Compound 1.21] the “pre-emergence control of harmful plants” value [1] was “very good pre-emergence control” and the “herbicidal post-emergence activity” value [2] was “very good herbicidal post-emergence activity”.

For CCc1nc(N)nc(N[C@@H]2CCOc3c2ccc(C)c3C)n1 [Compound 8.242], the “pre-emergence control of harmful plants” value [1] was “very good pre-emergence control” and the “herbicidal post-emergence activity” value [2] was “very good herbicidal post-emergence activity”.

For CCCc1nc(N)nc(N[C@@H]2CCCc3c(C)cc(C)cc32)n1 [Compound 8.61], the “pre-emergence control of harmful plants” value [1] was “very good pre-emergence control” and the “herbicidal post-emergence activity” value [2] was “very good herbicidal post-emergence activity”.

CCc1nc(N)nc(N[C@@H]2CCCc3ccccc32)n1 [Compound 8.34] was tested, and the “pre-emergence control of harmful plants” value [1] was “very good pre-emergence control” and the “herbicidal post-emergence activity” value [2] was “very good herbicidal post-emergence activity”.

In the case of CC(C)(F)c1nc(N)nc(N[C@@H]2CCOc3c(F)cccc32)n1 [Compound 8.237], the “pre-emergence control of harmful plants” value [1] is reported as “very good pre-emergence control” and the “herbicidal post-emergence activity” value [2] is reported as “very good herbicidal post-emergence activity”.

In the case of Cc1ccc2c(c1)[C@H](Nc1nc(N)nc(CCSC(F)(F)F)n1)[C@@H](C)C2 [Compound 7.238], the “pre-emergence control of harmful plants” value [1] is reported as “very good pre-emergence control” and the “herbicidal post-emergence activity” value [2] is reported as “very good herbicidal post-emergence activity”.

In the case of CC(C)(F)c1nc(N)nc(N[C@@H]2CCc3ccc(F)cc32)n1 [Compound 8.197], the “pre-emergence control of harmful plants” value [1] is reported as “very good pre-emergence control” and the “herbicidal post-emergence activity” value [2] is reported as “very good herbicidal post-emergence activity”.

In the case of Cc1ccc2c(c1)[C@H](Nc1nc(C)nc(N)n1)[C@@H](C)C2 [Compound 7.2], the “pre-emergence control of harmful plants” value [1] is reported as “very good pre-emergence control” and the “herbicidal post-emergence activity” value [2] is reported as “very good herbicidal post-emergence activity”.

With CCc1nc(N)nc(N[C@H]2c3cc(C)ccc3C[C@@H]2C)n1 [Compound 7.75] the “pre-emergence control of harmful plants” value [1] was “very good pre-emergence control” and the “herbicidal post-emergence activity” value [2] was “very good herbicidal post-emergence activity”.

In the case of Cc1nc(N)nc(N[C@@H]2CCOc3c(F)cccc32)n1 [Compound 8.238], the “pre-emergence control of harmful plants” value [1] is reported as “very good pre-emergence control” and the “herbicidal post-emergence activity” value [2] is reported as “very good herbicidal post-emergence activity”.

In the case of Nc1nc(N[C@@H]2CCCc3ccccc32)nc(C(F)F)n1 [Compound 8.256], the “pre-emergence control of harmful plants” value [1] is reported as “very good pre-emergence control” and the “herbicidal post-emergence activity” value [2] is reported as “very good herbicidal post-emergence activity”.

For N#CCc1nc(N)nc(N[C@@H]2CCCc3ccccc32)n1 [Compound 8.255], the “pre-emergence control of harmful plants” value [1] was “very good pre-emergence control” and the “herbicidal post-emergence activity” value [2] was “very good herbicidal post-emergence activity”.

In the case of CC(C)c1nc(N)nc(N[C@@H]2CCc3ccc(F)cc32)n1 [Compound 8.68], the “pre-emergence control of harmful plants” value [1] is reported as “very good pre-emergence control” and the “herbicidal post-emergence activity” value [2] is reported as “very good herbicidal post-emergence activity”.

For C[C@@H](F)c1nc(N)nc(N[C@H]2c3cc(Cl)ccc3C[C@@H]2C)n1 [Compound 2.4], the “pre-emergence control of harmful plants” value [1] was “very good pre-emergence control” and the “herbicidal post-emergence activity” value [2] was “very good herbicidal post-emergence activity”.

For Cc1nc(N)nc(N[C@@H]2CCc3ccc(F)cc32)n1 [Compound 8.3], the “pre-emergence control of harmful plants” value [1] was “very good pre-emergence control” and the “herbicidal post-emergence activity” value [2] was “very good herbicidal post-emergence activity”.

CCCc1nc(N)nc(N[C@@H]2CCc3ccc(F)cc32)n1 [Compound 8.49] was tested, and the “pre-emergence control of harmful plants” value [1] was “very good pre-emergence control” and the “herbicidal post-emergence activity” value [2] was “very good herbicidal post-emergence activity”.

CCc1nc(N)nc(N[C@@H]2CCc3ccc(F)cc32)n1 [Compound 8.26] was tested, and the “pre-emergence control of harmful plants” value [1] was “very good pre-emergence control” and the “herbicidal post-emergence activity” value [2] was “very good herbicidal post-emergence activity”.
